{"source": "patent US20110319287A1", "about": "“MODULATOR ASSAY” (ADDEX PHARMA S.A., priority 2009, published 2011)", "key": {"[1]": {"system": "TNF-induced relocalisation of EYFP-TRADD (TNFR1-containing complex I) in HeLa cells", "assay": "TNF-mediated relocation of fluorescently tagged TRADD in Clone #49-E2 HeLa cells, 384-well (Example 2)", "format": "cell-based, human", "conditions": "for effect of downstream signalling inhibitors on detectable EYFP-TRADD clusters: increasing concentrations, in the presence of TNF, FIGS. 14-16; for selectivity: relocalisation of the reporter molecule EYFP-TRADD effected by other compounds or molecules: added instead of TNF, FIG. 12", "experimental": "The following experimental procedure to detect the reporter molecule in the presence of absence of a “test” compound (or molecule, as described below) was conducted.\nOn day 1, 10^3 cells per well were plated in thin glass bottom 384 wells plate in 50 μl of culture media (DMEM glutamax, 10% FBS, peni-strep, geneticin, hygromycin). The cells were incubated overnight at 37° C. On day 2, media was aspirated, and 35 μl of warm DMEM, 2, 5% FBS, HEPES 10 mM added. Then, 15 μl of 4× the test compound diluted in DMEM, 2, 5% FBS, HEPES 10 mM was added to cells using a Biomek laboratory automation workstation (Beckman-Coulter). This was incubated at room temperature for 1.5 min. […] The cells were washed three times with PBS 1× using an Embla 384 Cell Washer (Molecular Devices). Cells were fixed by adding PBS 1×, 5% PFA+Hoescht 0.2 μg/ml using a Multidrop 384 dispensor (Thermo Scientific; 30 μl/well) followed by an incubation for 20 min at room temperature in the dark. After a further three washes of the cells with PBS 1× using the Embla 384 Cell Washer, 60 μl per well of PBS 1×, 1% peni-strep was added. The plate was covered with a transparent sealing film. Readings were then taken on the Scientific Cellomics ArrayScan HCS Reader automated microscope system as used in Example 1."}, "[2]": {"system": "TNF-mediated relocation of TRADD-EYFP in HeLa cells", "assay": "TNF-mediated relocation of TRADD-EYFP / EYFP-TRADD in stably transfected HeLa cells (Example 1, clone HeLa/TRADD-EYFP#49)", "format": "cell-based, human", "conditions": "for blocking of TNF-induced relocalisation of fluorescently tagged TRADD to punctuate structures: in the presence of TNF, R-7050 100 μM with 1000 ng/ml TNF (FIG. 6), etanercept FIG. 9", "from_the_text": "The pTREhyg-EYFP-TRADD and pTREhyg-TRADD-EYFP expression vectors were stably transfected using PolyFect® Transfection Reagent (Qiagen), according to the manufacturer's protocol, into HeLa Tet-On Cell Line cells (Clontech Laboratories, Inc.). This cell line is a neomycin resistant human cervical epithelioid carcinoma cell line transformed with a modified version of pTet-On which has a nuclear localization signal fused to the N-terminus (pUHD172-1neo).\nIntracellular location of EYFP-TRADD and TRADD-EYFP was determined using fluorescence microscopy. Using a fluorescence microscope, cells are illuminated with light of a specific wavelength which is absorbed by the EYFP, causing it to emit longer wavelengths of light (of a different colour than the absorbed light). The illumination light is separated from the much weaker emitted fluorescence through the use of an emission filter, and an image of the cell created.\nWe then used an automated microscope system (a Thermo Scientific Cellomics ArrayScan HCS Reader) as an automated fluorescence microscopic imaging system designed for high content screening and high content analysis. The instrument features include optics by Carl Zeiss, broad white-light source, 12-bit cooled CCD camera, and controller software. The instrument is designed to work with image analysis modules (Thermo Scientific BioApplications) that automatically convert images into numeric data that capture changes in cell size, shape, intensity, and other properties. The system allows: high content screening, analysis of cells containing fluorescent reporter molecules in an array of locations, treating the cells in the array of locations with one or more test compounds, imaging numerous cells in each location with fluorescence optics, and converting the optical information into digital data. This digital data was then used to determine the positioning, distribution, environment or activity of the fluorescently labelled reporter molecules (EYFP-TRADD or TRADD-EYFP) in the transfected HeLa cells and the distribution of the cells. This information was analysed in terms of a positive, negative or null effect of each test compound being examined. This system allowed differences between untreated and treated cells to be measured, for example by counting the number of fluorescent spots (rather than diffuse fluorescence) in cells.\nUsing GraphPad Prism (v. 4.01, San Diego, Calif., USA), a dose-response curve was generated (FIG. 7). Percentage responders (y-axis values in FIGS. 7 and 8) were determined as the number of cells with more than five spots, which is an alternative but qualitatively similar measurement to spot count per cell (see below)."}, "[3]": {"target": "T1, TL1A-activated DR3 receptor (Homo sapiens, UniProt Q93038, P167L)", "T1 construct": "(N); expressed in transfected cells; host or cells: HeLa Tet-On cells stably expressing TRADD-EYFP, transfected with pTRE2-DR3 (HeLa TRADD DR3)", "T1 sequence (Q93038 with tags, fused parts or gaps P167L)": "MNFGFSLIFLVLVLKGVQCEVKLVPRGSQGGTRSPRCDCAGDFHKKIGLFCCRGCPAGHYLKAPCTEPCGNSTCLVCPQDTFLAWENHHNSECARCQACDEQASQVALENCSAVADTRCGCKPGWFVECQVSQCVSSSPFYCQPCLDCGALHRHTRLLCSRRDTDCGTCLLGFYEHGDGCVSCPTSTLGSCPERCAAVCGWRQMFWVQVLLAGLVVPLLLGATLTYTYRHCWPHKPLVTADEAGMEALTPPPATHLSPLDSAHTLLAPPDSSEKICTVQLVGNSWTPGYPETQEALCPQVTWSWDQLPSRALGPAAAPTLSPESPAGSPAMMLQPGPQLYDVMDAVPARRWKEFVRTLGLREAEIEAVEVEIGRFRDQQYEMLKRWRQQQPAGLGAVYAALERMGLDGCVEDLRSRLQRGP", "assay": "TL1A-induced TRADD-EYFP relocation in HeLa TRADD DR3 recombinant cells (Example 3)", "format": "cell-based", "conditions": "FIG. 17", "text": "(§1) In a further example of the present invention, a method involving the TL1A-activated DR3 receptor was developed. The TRADD-EYFP HeLa clones comprising the TRADD-EYFP reporter molecule transfected into HeLa cells as described in Example 1 was employed. The DR3 receptor (cDNA sequence shown in SEQ ID NO: 19 and encoded protein shown in SEQ ID NO: 20) which had been cloned in the vector pCR3.1 (Invitrogen) was transferred into the vector pTre2 (Clontech) using the Gateway® cloning technique with the primers Attb1 Forward primer (SEQ ID NO: 21) and Attb2 Reverse primer (SEQ ID NO: 22), yielding a pTRE2-DR3 expression vector (SEQ ID NO: 23). This expression vector was then transfected into the TRADD-EYFP HeLa clones to produce a double transformants designated HeLa TRADD DR3.\n(§2) Monitoring and quantification of the TRADD-EYFP reporter molecule was conducted as described in Examples 1 and 2 above. […] The data of FIG. 17 are depicted graphically in FIG. 18."}, "[4]": {"system": "TNF-induced TRADD relocalisation in HeLa TRADD DR3 cells", "assay": "TNF-induced TRADD-EYFP relocation in HeLa TRADD DR3 recombinant cells (Example 3)", "format": "cell-based, human", "conditions": "in the presence of 100 ng/ml TNF; FIG. 19", "text": "as §1, §2"}}, "note": "Peptide text beside a SMILES is read from it. * marks the point of attachment. Cbz = O=C(OCc1ccccc1)*; CH2F = FC*"}
{"molecule": "O=C(c1ccc(Nc2nccc(-c3cc4ccccc4s3)n2)cc1)N1CCC(N2CCCC2)CC1", "note": "[IKK16]", "values": [{"measurement": "effect of downstream signalling inhibitors on detectable EYFP-TRADD clusters", "setting": "[1]", "value": "no change in detectable EYFP-TRADD clusters"}]}
{"molecule": "FC(F)(F)c1nnc2c(Sc3ccccc3)nc3ccc(Cl)cc3n12", "note": "[R-7050]", "values": [{"measurement": "blocking of TNF-induced relocalisation of fluorescently tagged TRADD to punctuate structures", "setting": "[2]", "value": "blocked"}, {"measurement": "IC50", "setting": "[2]; on 1000 ng/ml TNF, FIG. 8", "value": 2100, "unit": "nM"}]}
{"molecule": "CC[C@H](C)[C@H](NC(=O)OCc1ccccc1)C(=O)N[C@@H](CCC(=O)OC)C(=O)N[C@H](C(=O)N[C@@H](CC(=O)OC)C(=O)CF)[C@@H](C)O", "note": "[Z-IETD-FMK] (Cbz-IE(OMe)TD(OMe)-CH2F)", "values": [{"measurement": "effect of downstream signalling inhibitors on detectable EYFP-TRADD clusters", "setting": "[1]", "value": "no dissociation of clusters"}]}
{"molecule": "C=C1[C@@H](C)[C@H]2[C@H](Cc3ccccc3)NC(=O)[C@]23[C@H](OC(C)=O)/C=C/[C@@](C)(O)C(=O)[C@@H](C)C/C=C/[C@H]3[C@@H]1O", "note": "[cytochalasin D]", "values": [{"measurement": "effect of downstream signalling inhibitors on detectable EYFP-TRADD clusters", "setting": "[1]", "value": "a reduction in detectable EYFP-TRADD clusters"}]}
{"molecule": "IL1β: Recombinant Human IL1β from Peprotech, Cat N° 200-01B", "values": [{"measurement": "selectivity: relocalisation of the reporter molecule EYFP-TRADD effected by other compounds or molecules", "setting": "[1]", "value": "not effected"}]}
{"molecule": "Polyinosinic-polycytidylic acid potassium salt [Poly I:C]", "values": [{"measurement": "selectivity: relocalisation of the reporter molecule EYFP-TRADD effected by other compounds or molecules", "setting": "[1]", "value": "not effected"}]}
{"molecule": "TL1A: Recombinant Human TL1A/TNFSF15 from R&D Systems, Cat N° 1319-TL", "values": [{"measurement": "calculated EC50 of TL1A (TRADD-EYFP relocalisation to spots)", "setting": "[3]; HeLa TRADD DR3 cells", "value": 0.0043, "unit": "µg/mL"}, {"measurement": "selectivity: relocalisation of the reporter molecule EYFP-TRADD effected by other compounds or molecules", "setting": "[1]", "value": "not effected"}]}
{"molecule": "TRAIL: recombinant human TRAIL from Millipore, Cat N° GF092", "values": [{"measurement": "selectivity: relocalisation of the reporter molecule EYFP-TRADD effected by other compounds or molecules", "setting": "[1]", "value": "not effected"}]}
{"molecule": "etanercept", "values": [{"measurement": "dose-dependent inhibition of TL1A-induced relocalisation", "setting": "[3]; in the presence of 300 ng/ml TL1A", "value": "not"}, {"measurement": "blocking of TNF-induced relocalisation of EYFP-TRADD", "setting": "[1]; FIG. 13", "value": "blocks"}, {"measurement": "IC50", "setting": "[2]; TNF dose=300 ng/ml, FIG. 9", "value": 2740, "unit": "nM"}, {"measurement": "blocking of TNF-induced relocalisation of fluorescently tagged TRADD to punctuate structures", "setting": "[2]", "value": "block"}, {"measurement": "IC50 on TNF-induced relocalisation", "setting": "[4]", "value": 0.0538, "unit": "µg/mL"}, {"measurement": "dose-dependent inhibition of TNF-induced relocalisation", "setting": "[4]", "value": "dose-dependently inhibited"}]}
